The values below come from patent US20080234130A1, “Compositions providing tolerance to multiple herbicides and methods of use thereof” (priority 2005, published 2008).

The subject of data set [1] is non-glyphosate resistant Conyza (Welgevallen-paraquat resistant). In words: Control of hairy fleabane by glyphosate, metsulfuron-methyl and two additives (Table 24). It counts as in vivo, Conyza bonariensis. On the procedure:
This example included the same treatments as used in Example 11, except the treatments were carried out on a glyphosate sensitive biotype of Kleinskraalhans (Conyza bonariensis).
• Biotype: Non-glyphosate resistant Conyza (Welgevallen-paraquat resistant) • Growth Stage: 10-15 leaf stage • Conditions: Cool and sunny • Volume rate: 200 L ha^−1 • glyphosate (ROUNDUP): 360 g a.i. L^−1

For data set [2], the system named is non-glyphosate resistant ryegrass (70-04). In words: Control of ryegrass by glyphosate, metsulfuron-methyl and two additives (Table 23). It counts as in vivo. The method, then:
The example was conducted on non-glyphosate resistant ryegrass. As provided in Table 23, all treatments that included glyphosate [180 g a.i. L ha^−1 (0.5 L glyphosate (SCAT®))] plus metsulfuron-methyl (BRUSH-OFF®) (5 and 10 g ha^−1) gave 100% control of the ryegrass.
• Biotype: non-glyphosate resistant ryegrass (70-04) • Population profile: Rup 0.25 control (%) 6.25 • Rup 0.5 control (%) 81.25 • Rup 1.0 control (%) 93.75 • Growth Stage: 5-6 leaf stage • Conditions: hot and sunny • Volume rate: 200 L ha^−1

The test system of data set [3] is parent elite stiff stalk inbred corn. In words: Preemergence effect of ALS herbicides (fresh weight, visual injury). The following applies: 200 g/ha, 4 weeks after treatment, 0% no injury, 100% plant death, mean of four replications.
The test system of data set [4] is control maize. In words: Postemergence herbicide spray at V2, injury evaluated 10-14 days after application. The format is in vivo. As to conditions: tribenuron, chlorimuron, imazapyr 200 g ai/ha, metsulfuron-methyl 0.5 oz ai/ac or 35 g ai/ha, 10-14 days after spray.
Data set [5] has as its system heterozygous GAT-HRA corn. The data set can be described thus: Preemergence effect of ALS herbicides (fresh weight, visual injury). As to conditions: 200 g/ha, 4 weeks after treatment, 0% no injury, 100% plant death, mean of four replications.
The test system of data set [6] is heterozygous GAT-HRA corn. In words: Postemergence effect of ALS herbicides, glyphosate and glufosinate (fresh weight, visual injury). The following applies: 200 g/ha (glyphosate 3472 g ae/ha, glufosinate ammonium 1870 g/ha), 2 weeks after treatment, 0% no injury, 100% plant death, mean of four replications.
Data set [7] deals with parent elite stiff stalk inbred corn. The description is as above. The following applies: 200 g/ha (glyphosate 3472 g ae/ha, glufosinate ammonium 1870 g/ha), 2 weeks after treatment, 0% no injury, 100% plant death, mean of four replications.
Data set [8] deals with GAT-HRA maize. In words: Postemergence herbicide spray at V2, injury evaluated 10-14 days after application. As to conditions: in vivo. On the procedure: GAT-HRA maize plants were evaluated for tolerance to glyphosate and other herbicides. One protocol used in this evaluation was as follows. At the V2 stage (Ritchie and Hanway (1982), “How a corn plant develops” Spec. Rep. 48. (Coop. Ext. Ser., Iowa State Univ., Ames, Iowa)), plant heights were measured and herbicides were applied by spray application. Ten to fourteen days after the spray application, the transgenic plants were evaluated for injury symptoms and measured for plant height again in order to determine plant growth rates.
Plants were then evaluated at various times after treatment, such as 10 or 14 days after treatment. […] Leaf samples were taken from GAT-HRA plants and used in quantitative PCR analysis and other analyses to determine the number and arrangement of copies of the GAT and HRA polynucleotides that had been integrated into the plant genome.
Other protocols for evaluation included treatment with imidazolinone herbicides, such as the commercial herbicide Lightning® (a combination of imazapyr and imazethapyr), which was applied to GAT-HRA maize at the V2 leaf stage at four times the field label rate (250 g ai/ha). […] Another protocol for evaluation included treatment with imidazolinone herbicides as well as sulfonylurea and glyphosate herbicides. In these tests, GAT-HRA maize was treated with various combinations of Lightning® (imazapyr and imazethapyr), Basis® (rimsulfuron and thifensulfuron-methyl) and WeatherMAX® (glyphosate potassium salt). These herbicides were applied at the V2 stage as follows: Lightning® at twice the field label rate (1.8 oz ai/ac (133 ml ai/ha)), Basis® at twice the field label rate (0.5 oz ai/ac (36.9 ml ai/ha)) and WeatherMax® at four times the field label rate (43 oz ai/ac). Fourteen days after the treatment application, the plants were evaluated. […] “Field label rate” refers to the application rate specified on the product label. Where the application rate for a particular situation is a range of rates, as used herein, the term “field label rate” indicates the upper end of that range. […]

Data set [9] concerns GAT-HRA transgenic cotton plants. The data set can be described thus: Greenhouse over the top herbicide spray of cotton. It counts as in vivo, Gossypium hirsutum. As to conditions: rimsulfuron 16 g active ingredient/hectare over the top after glyphosate 1.5 lb ae/acre; 14 days after rimsulfuron, 28 days after glyphosate. An excerpt: (§1) Transformed cotton plants were rooted and then transferred to soil for further growth. Plants were then subjected to herbicide spray treatments in a greenhouse. […] Untransformed Coker 312 control plants were dead 2 weeks after glyphosate application. […] Plants transformed with both GAT and HRA were further subjected to an “over the top” application of the sulfonylurea herbicide rimsulfuron at a rate of 16 g active ingredient/hectare. […] In further experiments 32 g ai/ha rimsulfuron were applied to the cotton.

The subject of data set [10] is untransformed Coker 312 cotton. In words: Greenhouse over the top herbicide spray of cotton. The format is in vivo, Gossypium hirsutum. The following applies: rimsulfuron 16 g active ingredient/hectare, even in the absence of glyphosate.
Excerpt: as §1

The mark [11] stands for this setting: Trial 2: metsulfuron-methyl (BRUSH-OFF) 5 g/ha.
Setting [12] is: Trial 3: metsulfuron-methyl (BRUSH-OFF) 10 g/ha.

Consider `COC(=O)c1ccccc1S(=O)(=O)NC(=O)Nc1nc(C)nc(OC)n1` [Metsulfuron-methyl (BRUSH-OFF ®)], for which the “Control (%)” value is listed as 100% in data set [1] (setting [11]), 100% in [1] (setting [12]), 0% in [2] (setting [11]) and 0% in data set [2] (setting [12]).
Turning to `COC(=O)c1ccccc1S(=O)(=O)NC(=O)Nc1nc(C)nc(OC)n1` [Metsulfuron-methyl, methyl 2-[[[[(4-methoxy-6-methyl-1,3,5-triazin-2-yl)amino]carbonyl]amino]sulfonyl]benzoate], the “% Visual Injury Patent elite stiff stalk inbred” value in [3] is 100%. In addition, the “damage from the treatment, control maize” value in data set [4] is recorded as “severely damaged or killed”. In addition, the “% Visual Injury Heterozygous GAT-HRA” value is given as 0% in [5] and 14% in data set [6]. In addition, the “% Visual Injury Parent elite stiff stalk inbred” value in [7] is given as 100%. Besides, the “damage from the treatment, GAT-HRA maize” value in [8] is reported as “no significant damage”.
Turning to `CCS(=O)(=O)c1cccnc1S(=O)(=O)NC(=O)Nc1nc(OC)cc(OC)n1` [Rimsulfuron, N-[[(4,6-dimethoxy-2-pyrimidinyl)amino]carbonyl]-3-(ethylsulfonyl)-2-pyridinesulfonamide], the “transgenic plants with no deleterious symptoms from the dual herbicide application” value in [9] is on record as “approximately 35%”. For the same molecule, the “damage of untransformed Coker 312 plants” value in [10] was “severe damage”. Further, the “% Visual Injury Patent elite stiff stalk inbred” value in data set [3] came out at 74%. For the same molecule, the “% Visual Injury Heterozygous GAT-HRA” value is given as 0% in [5] and 10% in data set [6]. In data set [7], the “% Visual Injury Parent elite stiff stalk inbred” value turned out to be 91%.
